In the supplement of paper PMC6045584:
± gives the standard deviation of the averaged measurements.

What was measured:
CARBOPLATIN [1] = compound: T1, O=C(O)C1(C(=O)O)CCC1.[NH2-].[NH2-].[Pt+2] [CARBOPLATIN]; experiment: area under dose-response curve of surviving fraction (unscaled, Aref=0) (surviving fraction x log10(nM)); higher = more resistant; conditions: exposure time: 5 days; dose range 0.5-1000 nM
Summary of the method: (§1)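 Inhibitor was applied to tumour cell lines at eight concentrations (0.5 to 1000 nM) for five days in 384-well plates. Luminescence from CellTiter-Glo, scaled to DMSO-only wells, gave surviving fractions in three screens per line, and these were fitted by 3-parameter logistic regression with the drc R package. The area under the curve is an unscaled activity area. Aref was 0, and dose was on a log10 scale.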

PACLITAXEL [2] = compound: T2, CC(=O)O[C@H]1C(=O)[C@@]2(C)[C@H]([C@H](OC(=O)c3ccccc3)[C@]3(O)C[C@H](OC(=O)[C@H](O)[C@@H](NC(=O)c4ccccc4)c4ccccc4)C(C)=C1C3(C)C)[C@]1(OC(C)=O)CO[C@@H]1C[C@@H]2O [PACLITAXEL]; experiment: as above; conditions: exposure time: 5 days; dose range 0.5-1000 nM
Summary of the method: as §1

[3] = compound: CC(=O)NCC(=O)N1[C@@H]2CC[C@H]1c1ccc(Nc3ncc(C(F)(F)F)c(NC4CCC4)n3)cc12; experiment: as above; conditions: exposure time: 5 days; dose range 0.5-1000 nM
Summary of the method: as §1

CAMPTOTHECIN [4] = compound: T3, CC[C@@]1(O)C(=O)OCc2c1cc1n(c2=O)Cc2cc3ccccc3nc2-1 [CAMPTOTHECIN]; experiment: as above; conditions: exposure time: 5 days; dose range 0.5-1000 nM
Summary of the method: as §1

YM155 [5] = compound: T4, COCC[n+]1c2c(n(Cc3cnccn3)c1C)C(=O)c1ccccc1C2=O [YM155]; experiment: as above; conditions: exposure time: 5 days; dose range 0.5-1000 nM
Summary of the method: as §1

CELECOXIB [6] = compound: T5, Cc1ccc(-c2cc(C(F)(F)F)nn2-c2ccc(S(N)(=O)=O)cc2)cc1 [CELECOXIB]; experiment: as above; conditions: exposure time: 5 days; dose range 0.5-1000 nM
Summary of the method: as §1

[7] = compound: CC(=O)c1c(C)c2cnc(Nc3ccc(N4CCNCC4)cn3)nc2n(C2CCCC2)c1=O; experiment: as above; conditions: exposure time: 5 days; dose range 0.5-1000 nM
Summary of the method: as §1

OSI-906 [8] = compound: T6, C[C@]1(O)C[C@@H](c2nc(-c3ccc4ccc(-c5ccccc5)nc4c3)c3c(N)nccn32)C1 [OSI-906]; experiment: as above; conditions: exposure time: 5 days; dose range 0.5-1000 nM
Summary of the method: as §1

CARBOPLATIN [9] = compound: T1, CARBOPLATIN; experiment: surviving fraction relative to DMSO-only wells; higher = less growth inhibition; conditions: exposure time: 5 days
Summary of the method: (§2)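 Log-phase tumour cells were seeded at 250–500 per well in 384-well plates and, from 24 hours after seeding, exposed continuously for five days to inhibitors at 0.5, 1, 5, 10, 50, 100, 500 and 1000 nM. Surviving fraction is CellTiter-Glo luminescence normalised to the median of DMSO-only wells. Luminescence was measured after 10 minutes at room temperature, and only lines screened three times with replicate Pearson r >0.7 and median Z' >0.3 were kept.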

PACLITAXEL [10] = compound: T2, PACLITAXEL; experiment: as above; conditions: exposure time: 5 days
Summary of the method: as §2

[11] = compound: CC(=O)NCC(=O)N1[C@@H]2CC[C@H]1c1ccc(Nc3ncc(C(F)(F)F)c(NC4CCC4)n3)cc12; experiment: as above; conditions: exposure time: 5 days
Summary of the method: as §2

CAMPTOTHECIN [12] = compound: T3, CAMPTOTHECIN; experiment: as above; conditions: exposure time: 5 days
Summary of the method: as §2

YM155 [13] = compound: T4, YM155; experiment: as above; conditions: exposure time: 5 days
Summary of the method: as §2

CELECOXIB [14] = compound: T5, CELECOXIB; experiment: as above; conditions: exposure time: 5 days
Summary of the method: as §2

GEFITINIB = compound: COc1cc2ncnc(Nc3ccc(F)c(Cl)c3)c2cc1OCCCN1CCOCC1 [GEFITINIB]; experiment: as above; conditions: exposure time: 5 days
Summary of the method: as §2

[15] = compound: CC(=O)c1c(C)c2cnc(Nc3ccc(N4CCNCC4)cn3)nc2n(C2CCCC2)c1=O; experiment: as above; conditions: exposure time: 5 days
Summary of the method: as §2

OSI-906 [16] = compound: T6, OSI-906; experiment: as above; conditions: exposure time: 5 days
Summary of the method: as §2

Test System: SNU475 LIVER
- area under dose-response curve (CARBOPLATIN [1]): 3.44
- area under dose-response curve (PACLITAXEL [2]): 0.893
- area under dose-response curve [3]: 2.85
- area under dose-response curve (CAMPTOTHECIN [4]): 1.18
- area under dose-response curve (YM155 [5]): 1.91
- area under dose-response curve (CELECOXIB [6]): 3.49
- area under dose-response curve [7]: 3.4
- area under dose-response curve (OSI-906 [8]): 3.01
- surviving fraction (CARBOPLATIN [9]; 0.5 nM): 1.04 ± 0.088
- surviving fraction (CARBOPLATIN [9]; 1 nM): 1.06 ± 0.038
- surviving fraction (CARBOPLATIN [9]; 5 nM): 1.07 ± 0.041
- surviving fraction (CARBOPLATIN [9]; 10 nM): 1.05 ± 0.037
- surviving fraction (CARBOPLATIN [9]; 50 nM): 1.02 ± 0.075
- surviving fraction (CARBOPLATIN [9]; 100 nM): 1.05 ± 0.043
- surviving fraction (CARBOPLATIN [9]; 500 nM): 1.01 ± 0.04
- surviving fraction (CARBOPLATIN [9]; 1000 nM): 1.04 ± 0.036
- surviving fraction (PACLITAXEL [10]; 0.5 nM): 0.8 ± 0.034
- surviving fraction (PACLITAXEL [10]; 1 nM): 0.649 ± 0.026
- surviving fraction (PACLITAXEL [10]; 5 nM): 0.282 ± 0.018
- surviving fraction (PACLITAXEL [10]; 10 nM): 0.2 ± 0.023
- surviving fraction (PACLITAXEL [10]; 50 nM): 0.142 ± 0.014
- surviving fraction (PACLITAXEL [10]; 100 nM): 0.138 ± 0.0065
- surviving fraction (PACLITAXEL [10]; 500 nM): 0.132 ± 0.029
- surviving fraction (PACLITAXEL [10]; 1000 nM): 0.137 ± 0.008
- surviving fraction ([11]; 0.5 nM): 0.9533 ± 0.0031
- surviving fraction ([11]; 1 nM): 0.962 ± 0.038
- surviving fraction ([11]; 5 nM): 0.9607 ± 0.0076
- surviving fraction ([11]; 10 nM): 0.899 ± 0.051
- surviving fraction ([11]; 50 nM): 0.902 ± 0.035
- surviving fraction ([11]; 100 nM): 0.804 ± 0.035
- surviving fraction ([11]; 500 nM): 0.686 ± 0.079
- surviving fraction ([11]; 1000 nM): 0.529 ± 0.041
- surviving fraction (CAMPTOTHECIN [12]; 0.5 nM): 0.34 ± 0.0091
- surviving fraction (CAMPTOTHECIN [12]; 1 nM): 0.828 ± 0.034
- surviving fraction (CAMPTOTHECIN [12]; 5 nM): 0.635 ± 0.0066
- surviving fraction (CAMPTOTHECIN [12]; 10 nM): 0.482 ± 0.023
- surviving fraction (CAMPTOTHECIN [12]; 50 nM): 0.162 ± 0.0079
- surviving fraction (CAMPTOTHECIN [12]; 100 nM): 0.194 ± 0.012
- surviving fraction (CAMPTOTHECIN [12]; 500 nM): 0.103 ± 0.0081
- surviving fraction (CAMPTOTHECIN [12]; 1000 nM): 0.104 ± 0.0085
- surviving fraction (YM155 [13]; 0.5 nM): 0.815 ± 0.055
- surviving fraction (YM155 [13]; 1 nM): 0.991 ± 0.048
- surviving fraction (YM155 [13]; 5 nM): 0.97 ± 0.044
- surviving fraction (YM155 [13]; 10 nM): 0.944 ± 0.03
- surviving fraction (YM155 [13]; 50 nM): 0.372 ± 0.035
- surviving fraction (YM155 [13]; 100 nM): 0.123 ± 0.012
- surviving fraction (YM155 [13]; 500 nM): 0.0263 ± 0.00058
- surviving fraction (YM155 [13]; 1000 nM): 0.0303 ± 0.0015
- surviving fraction (CELECOXIB [14]; 0.5 nM): 1.06 ± 0.039
- surviving fraction (CELECOXIB [14]; 1 nM): 1.08 ± 0.054
- surviving fraction (CELECOXIB [14]; 5 nM): 1.02 ± 0.03
- surviving fraction (CELECOXIB [14]; 10 nM): 1.05 ± 0.033
- surviving fraction (CELECOXIB [14]; 50 nM): 1.07 ± 0.026
- surviving fraction (CELECOXIB [14]; 100 nM): 1.02 ± 0.046
- surviving fraction (CELECOXIB [14]; 500 nM): 1.06 ± 0.03
- surviving fraction (CELECOXIB [14]; 1000 nM): 1.11 ± 0.026
- surviving fraction (GEFITINIB; 0.5 nM): 1.05 ± 0.096
- surviving fraction (GEFITINIB; 1 nM): 1.05 ± 0.05
- surviving fraction (GEFITINIB; 5 nM): 1.01 ± 0.016
- surviving fraction (GEFITINIB; 10 nM): 1.03 ± 0.05
- surviving fraction (GEFITINIB; 50 nM): 1.02 ± 0.045
- surviving fraction (GEFITINIB; 100 nM): 0.979 ± 0.038
- surviving fraction (GEFITINIB; 500 nM): 0.939 ± 0.021
- surviving fraction (GEFITINIB; 1000 nM): 0.898 ± 0.028
- surviving fraction ([15]; 0.5 nM): 1.02 ± 0.037
- surviving fraction ([15]; 1 nM): 1.01 ± 0.041
- surviving fraction ([15]; 5 nM): 1.06 ± 0.026
- surviving fraction ([15]; 10 nM): 1.01 ± 0.073
- surviving fraction ([15]; 50 nM): 1.07 ± 0.02
- surviving fraction ([15]; 100 nM): 1.03 ± 0.088
- surviving fraction ([15]; 500 nM): 1.04 ± 0.021
- surviving fraction ([15]; 1000 nM): 0.917 ± 0.04
- surviving fraction (OSI-906 [16]; 0.5 nM): 0.89 ± 0.023
- surviving fraction (OSI-906 [16]; 1 nM): 0.887 ± 0.037
- surviving fraction (OSI-906 [16]; 5 nM): 0.887 ± 0.012
- surviving fraction (OSI-906 [16]; 10 nM): 0.869 ± 0.054
- surviving fraction (OSI-906 [16]; 50 nM): 0.942 ± 0.037
- surviving fraction (OSI-906 [16]; 100 nM): 0.921 ± 0.013
- surviving fraction (OSI-906 [16]; 500 nM): 0.944 ± 0.011
- surviving fraction (OSI-906 [16]; 1000 nM): 0.963 ± 0.015
